Experimental data: patent US12077503B2, “Substituted cyclic amides and their use as herbicides” (FMC CORPORATION, priority 2015, dated 2024)

Tests used:
Format in all cases: in vivo
[1] = system: velvetleaf (Abutilon theophrasti); test: Test G Pre-Emergence Protocol; conditions: Abutilon theophrasti, pre-emergence, 312 h, evaluated after 13 days; for pest or weed control at 15.625 g/ha: 15.625 g ai/ha; for pest or weed control at 15.625 g/ha / pest or weed control at 250 g/ha: read-out: Velvetleaf damage rating (100=total damage to plant; 0=no damage to plant); for pest or weed control at 62.5 g/ha: 62.5 g ai/ha, 100=total damage to plant, 0=no damage to plant, read-out: Velvetleaf damage rating; for pest or weed control at 250 g/ha: 250 g ai/ha
Summary of the method: (§1)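 Visual injury (0–100) at day 13 after a single pre-emergence spray. Rates: 15.625, 62.5, 250 g/ha in acetone–water 50:50 with 0.5% Tween 20. Growth conditions: 24/16° C, 14 h light, 65% humidity.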

[2] = system: redroot pigweed (Amaranthus retroflexus); test: Test G Pre-Emergence Protocol; conditions: Amaranthus retroflexus, pre-emergence, 312 h, evaluated after 13 days; for pest or weed control at 15.625 g/ha: 15.625 g ai/ha; for pest or weed control at 15.625 g/ha / pest or weed control at 250 g/ha: read-out: Pigweed, Redroot damage rating (100=total damage to plant; 0=no damage to plant); for pest or weed control at 62.5 g/ha: 62.5 g ai/ha, 100=total damage to plant, 0=no damage to plant, read-out: Pigweed, Redroot damage rating; for pest or weed control at 250 g/ha: 250 g ai/ha
Summary of the method: as §1

[3] = system: barnyardgrass (Echinochloa crus-galli); test: Test G Pre-Emergence Protocol; conditions: Echinochloa crus-galli, pre-emergence, 312 h, evaluated after 13 days; for pest or weed control at 15.625 g/ha: 15.625 g ai/ha; for pest or weed control at 15.625 g/ha / pest or weed control at 250 g/ha: read-out: Barnyardgrass damage rating (100=total damage to plant; 0=no damage to plant); for pest or weed control at 62.5 g/ha: 62.5 g ai/ha, 100=total damage to plant, 0=no damage to plant, read-out: Barnyardgrass damage rating; for pest or weed control at 250 g/ha: 250 g ai/ha
Summary of the method: as §1

corn (Zea mays) [4] = test: Test G Pre-Emergence Protocol; conditions: Zea mays, pre-emergence, 312 h, evaluated after 13 days; for plant injury at 15.625 g/ha: 15.625 g ai/ha; for plant injury at 15.625 g/ha / plant injury at 250 g/ha: read-out: Corn damage rating (100=total damage to plant; 0=no damage to plant); for plant injury at 62.5 g/ha: 62.5 g ai/ha, 100=total damage to plant, 0=no damage to plant, read-out: Corn damage rating; for plant injury at 250 g/ha: 250 g ai/ha
Summary of the method: as §1

[5] = system: giant foxtail (Setaria faberi); test: Test G Pre-Emergence Protocol; conditions: Setaria faberi, pre-emergence, 312 h, evaluated after 13 days; for pest or weed control at 15.625 g/ha: 15.625 g ai/ha; for pest or weed control at 15.625 g/ha / pest or weed control at 250 g/ha: read-out: Foxtail, Giant damage rating (100=total damage to plant; 0=no damage to plant); for pest or weed control at 62.5 g/ha: 62.5 g ai/ha, 100=total damage to plant, 0=no damage to plant, read-out: Foxtail, Giant damage rating; for pest or weed control at 250 g/ha: 250 g ai/ha
Summary of the method: as §1

[6] = system: ivy-leaved morning glory (Ipomoea hederacea); test: Test G Pre-Emergence Protocol; conditions: Ipomoea, pre-emergence, 312 h, evaluated after 13 days; for pest or weed control at 15.625 g/ha: 15.625 g ai/ha; for pest or weed control at 15.625 g/ha / pest or weed control at 250 g/ha: read-out: Morningglory, Ivy-leaved damage rating (100=total damage to plant; 0=no damage to plant); for pest or weed control at 62.5 g/ha: 62.5 g ai/ha, 100=total damage to plant, 0=no damage to plant, read-out: Morningglory, Ivy-leaved damage rating; for pest or weed control at 250 g/ha: 250 g ai/ha
Summary of the method: as §1

[7] = system: velvetleaf (Abutilon theophrasti); test: Test G Post-Emergence Protocol; conditions: Abutilon theophrasti, post-emergence, 312 h, read-out: Velvetleaf damage rating; for pest or weed control at 15.625 g/ha: 15.625 g ai/ha, evaluated after 13 days (100=total damage to plant; 0=no damage to plant); for pest or weed control at 62.5 g/ha: 62.5 g ai/ha; for pest or weed control at 62.5 g/ha / pest or weed control at 250 g/ha: evaluated after 13 days, 100=total damage to plant, 0=no damage to plant; for pest or weed control at 250 g/ha: 250 g ai/ha
Summary of the method: (§2)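 Values are percent visual injury at 13 days after treatment (0 none, 100 total). Treatment was a post-emergence spray at 15.625, 62.5 or 250 g/ha on 8-day-old pot plants kept at 24/16 °C.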

[8] = system: redroot pigweed (Amaranthus retroflexus); test: Test G Post-Emergence Protocol; conditions: Amaranthus retroflexus, post-emergence, 312 h, read-out: Pigweed, Redroot damage rating; for pest or weed control at 15.625 g/ha: 15.625 g ai/ha, evaluated after 13 days (100=total damage to plant; 0=no damage to plant); for pest or weed control at 62.5 g/ha: 62.5 g ai/ha; for pest or weed control at 62.5 g/ha / pest or weed control at 250 g/ha: evaluated after 13 days, 100=total damage to plant, 0=no damage to plant; for pest or weed control at 250 g/ha: 250 g ai/ha
Summary of the method: as §2

[9] = system: barnyardgrass (Echinochloa crus-galli); test: Test G Post-Emergence Protocol; conditions: Echinochloa crus-galli, post-emergence, 312 h, read-out: Barnyardgrass damage rating; for pest or weed control at 15.625 g/ha: 15.625 g ai/ha, evaluated after 13 days (100=total damage to plant; 0=no damage to plant); for pest or weed control at 62.5 g/ha: 62.5 g ai/ha; for pest or weed control at 62.5 g/ha / pest or weed control at 250 g/ha: evaluated after 13 days, 100=total damage to plant, 0=no damage to plant; for pest or weed control at 250 g/ha: 250 g ai/ha
Summary of the method: as §2

corn (Zea mays) [10] = test: Test G Post-Emergence Protocol; conditions: Zea mays, post-emergence, 312 h, read-out: Corn damage rating; for plant injury at 15.625 g/ha: 15.625 g ai/ha, evaluated after 13 days (100=total damage to plant; 0=no damage to plant); for plant injury at 62.5 g/ha: 62.5 g ai/ha; for plant injury at 62.5 g/ha / plant injury at 250 g/ha: evaluated after 13 days, 100=total damage to plant, 0=no damage to plant; for plant injury at 250 g/ha: 250 g ai/ha
Summary of the method: as §2

[11] = system: giant foxtail (Setaria faberi); test: Test G Post-Emergence Protocol; conditions: Setaria faberi, post-emergence, 312 h, read-out: Foxtail, Giant damage rating; for pest or weed control at 15.625 g/ha: 15.625 g ai/ha, evaluated after 13 days (100=total damage to plant; 0=no damage to plant); for pest or weed control at 62.5 g/ha: 62.5 g ai/ha; for pest or weed control at 62.5 g/ha / pest or weed control at 250 g/ha: evaluated after 13 days, 100=total damage to plant, 0=no damage to plant; for pest or weed control at 250 g/ha: 250 g ai/ha
Summary of the method: as §2

[12] = system: ivy-leaved morning glory (Ipomoea hederacea); test: Test G Post-Emergence Protocol; conditions: Ipomoea, post-emergence, 312 h, read-out: Morningglory, Ivy-leaved damage rating; for pest or weed control at 15.625 g/ha: 15.625 g ai/ha, evaluated after 13 days (100=total damage to plant; 0=no damage to plant); for pest or weed control at 62.5 g/ha: 62.5 g ai/ha; for pest or weed control at 62.5 g/ha / pest or weed control at 250 g/ha: evaluated after 13 days, 100=total damage to plant, 0=no damage to plant; for pest or weed control at 250 g/ha: 250 g ai/ha
Summary of the method: as §2

## COc1cc(OC(F)(F)F)cc(C2CN(C)C(=O)C2C(=O)Nc2cccc(F)c2F)c1 (stereo not drawn) [Compound 1697]
[1]
  pest or weed control at 15.625 g/ha: 0%
  pest or weed control at 62.5 g/ha: 0%
  pest or weed control at 250 g/ha: 20%
[2]
  pest or weed control at 15.625 g/ha: 0%
  pest or weed control at 62.5 g/ha: 0%
  pest or weed control at 250 g/ha: 20%
[3]
  pest or weed control at 15.625 g/ha: 40%
  pest or weed control at 62.5 g/ha: 70%
  pest or weed control at 250 g/ha: 80%
Corn (Zea mays) [4]
  plant injury at 15.625 g/ha: 0%
  plant injury at 62.5 g/ha: 40%
  plant injury at 250 g/ha: 50%
[5]
  pest or weed control at 15.625 g/ha: 70%
  pest or weed control at 62.5 g/ha: 80%
  pest or weed control at 250 g/ha: 80%
[6]
  pest or weed control at 15.625 g/ha: 0%
  pest or weed control at 62.5 g/ha: 0%
  pest or weed control at 250 g/ha: 0%
[7]
  pest or weed control at 15.625 g/ha: 0%
  pest or weed control at 62.5 g/ha: 30%
  pest or weed control at 250 g/ha: 30%
[8]
  pest or weed control at 15.625 g/ha: 20%
  pest or weed control at 62.5 g/ha: 60%
  pest or weed control at 250 g/ha: 70%
[9]
  pest or weed control at 15.625 g/ha: 60%
  pest or weed control at 62.5 g/ha: 70%
  pest or weed control at 250 g/ha: 90%
Corn (Zea mays) [10]
  plant injury at 15.625 g/ha: 10%
  plant injury at 62.5 g/ha: 80%
  plant injury at 250 g/ha: 80%
[11]
  pest or weed control at 15.625 g/ha: 80%
  pest or weed control at 62.5 g/ha: 80%
  pest or weed control at 250 g/ha: 80%
[12]
  pest or weed control at 15.625 g/ha: 30%
  pest or weed control at 62.5 g/ha: 60%
  pest or weed control at 250 g/ha: 60%

## COc1cc(F)cc(C2CN(C)C(=O)C2C(=O)Nc2cccc(F)c2F)c1 (stereo not drawn) [Compound 1699]
[1]
  pest or weed control at 15.625 g/ha: 0%
  pest or weed control at 62.5 g/ha: 0%
  pest or weed control at 250 g/ha: 0%
[2]
  pest or weed control at 15.625 g/ha: 0%
  pest or weed control at 62.5 g/ha: 0%
  pest or weed control at 250 g/ha: 0%
[3]
  pest or weed control at 15.625 g/ha: 60%
  pest or weed control at 62.5 g/ha: 80%
  pest or weed control at 250 g/ha: 90%
Corn (Zea mays) [4]
  plant injury at 15.625 g/ha: 0%
  plant injury at 62.5 g/ha: 30%
  plant injury at 250 g/ha: 70%
[5]
  pest or weed control at 15.625 g/ha: 80%
  pest or weed control at 62.5 g/ha: 90%
  pest or weed control at 250 g/ha: 90%
[6]
  pest or weed control at 15.625 g/ha: 0%
  pest or weed control at 62.5 g/ha: 10%
  pest or weed control at 250 g/ha: 70%
[7]
  pest or weed control at 15.625 g/ha: 0%
  pest or weed control at 62.5 g/ha: 0%
  pest or weed control at 250 g/ha: 30%
[8]
  pest or weed control at 15.625 g/ha: 0%
  pest or weed control at 62.5 g/ha: 0%
  pest or weed control at 250 g/ha: 30%
[9]
  pest or weed control at 15.625 g/ha: 60%
  pest or weed control at 62.5 g/ha: 80%
  pest or weed control at 250 g/ha: 90%
Corn (Zea mays) [10]
  plant injury at 15.625 g/ha: 0%
  plant injury at 62.5 g/ha: 30%
  plant injury at 250 g/ha: 70%
[11]
  pest or weed control at 15.625 g/ha: 80%
  pest or weed control at 62.5 g/ha: 80%
  pest or weed control at 250 g/ha: 80%
[12]
  pest or weed control at 15.625 g/ha: 10%
  pest or weed control at 62.5 g/ha: 30%
  pest or weed control at 250 g/ha: 70%
